One data set has as its system Uromyces appendiculatus. Put plainly: In vivo preventive test on Uromyces appendiculatus (bean rust). Conditions: 264 h, 500 ppm of active ingredient, preventive spray on young bean plants, evaluated 11 days after inoculation, read-out: efficacy. The procedure:
(§1) Example D: In Vivo Preventive Test on Uromyces appendiculatus (Bean Rust) [table] The active ingredients are made soluble and homogenized in a mixture of Dimethyl sulfoxide/Acetone/Tween® 80 and then diluted in water to the desired concentration. The young plants of bean are treated by spraying the active ingredient prepared as described above. Control plants are treated only with an aqueous solution of Acetone/Dimethyl sulfoxide/Tween® 80. After 24 hours, the plants are contaminated by spraying the leaves with an aqueous suspension of Uromyces appendiculatus spores. The contaminated bean plants are incubated for 24 hours at 20° C. and at 100% relative humidity and then for 10 days at 20° C. and at 70-80% relative humidity. The test is evaluated 11 days after the inoculation. 0% means an efficacy which corresponds to that of the control plants while an efficacy of 100% means that no disease is observed.

Data set [1] is described as follows: LogP by HPLC on reversed phase columns (EEC directive 79/831 Annex V.A8). It is filed as physicochemical. Conditions: reversed phase HPLC column, method [a]: LC-UV, acidic range, 0.1% formic acid in water and acetonitrile as eluent. The method, then:
[table] If more than one Log P value is available within the same method, all the values are given and separated by “+”. Calibration was done with straight-chain alkan2-ones (with 3 to 16 carbon atoms) with known Log P values (measurement of Log P values using retention times with linear interpolation between successive alkanones). Lambda-max-values were determined using UV-spectra from 200 nm to 400 nm and the peak values of the chromatographic signals.

In data set [2] the test system is Blumeria graminis fsp. hordei. Put plainly: In vivo preventive Blumeria test (barley). To be noted: 168 h, 500 ppm of active ingredient, preventive spray on young barley plants, evaluated 7 days after inoculation, read-out: efficacy. The procedure:
Example F: In Vivo Preventive Blumeria Test (Barley) [table] To produce a suitable preparation of active compound, 1 part by weight of active compound or active compound combination is mixed with the stated amounts of solvent and emulsifier, and the concentrate is diluted with water to the desired concentration. To test for preventive activity, young plants are sprayed with the preparation of active compound or active compound combination at the stated rate of application. After the spray coating has been dried, the plants are dusted with spores of Blumeria graminis fsp. hordei. The plants are placed in the greenhouse at a temperature of approximately 18° C. and a relative atmospheric humidity of approximately 80% to promote the development of mildew pustules. The test is evaluated 7 days after the inoculation. 0% means an efficacy which corresponds to that of the untreated control, while an efficacy of 100% means that no disease is observed.

The subject of the next data set is Septoria tritici. Put plainly: In vivo preventive test on Septoria tritici (leaf spot on wheat). To be noted: Zymoseptoria tritici, 576 h; 500 ppm of active ingredient; preventive spray on young wheat plants; evaluated 24 days after inoculation; read-out: efficacy. The procedure: Example B: In Vivo Preventive Test on Septoria tritici (Leaf Spot on Wheat) [table] The active ingredients are made soluble and homogenized in a mixture of Dimethyl sulfoxide/Acetone/Tween® 80 and then diluted in water to the desired concentration. The young plants of wheat are treated by spraying the active ingredient prepared as described above. Control plants are treated only with an aqueous solution of Acetone/Dimethyl sulfoxide/Tween® 80. After 24 hours, the plants are contaminated by spraying the leaves with an aqueous suspension of Septoria tritici spores. The contaminated wheat plants are incubated for 72 hours at 18° C. and at 100% relative humidity and then for 21 days at 20° C. and at 90% relative humidity. The test is evaluated 24 days after the inoculation. 0% means an efficacy which corresponds to that of the control plants while an efficacy of 100% means that no disease is observed.

For a further data set, the system named is Sphaerotheca fuliginea. The data set can be described thus: In vivo preventive test on Sphaerotheca fuliginea (powdery mildew on cucurbits). Conditions: Podosphaera fuliginea, 360 h; 500 ppm of active ingredient; preventive spray on young gherkin plants; evaluated 15 days after inoculation; read-out: efficacy. The procedure:
Example C: In Vivo Preventive Test on Sphaerotheca fuliginea (Powdery Mildew on Cucurbits) [table] The active ingredients are made soluble and homogenized in a mixture of Dimethyl sulfoxide/Acetone/Tween® 80 and then diluted in water to the desired concentration. The young plants of gherkin are treated by spraying the active ingredient prepared as described above. Control plants are treated only with an aqueous solution of Acetone/Dimethyl sulfoxide/Tween® 80. After 24 hours, the plants are contaminated by spraying the leaves with an aqueous suspension of Sphaerotheca fuidiginea spores. The contaminated gherkin plants are incubated for 72 hours at 18° C. and at 100% relative humidity and then for 12 days at 20° C. and at 70-80% relative humidity. The test is evaluated 15 days after the inoculation. 0% means an efficacy which corresponds to that of the control plants while an efficacy of 100% means that no disease is observed.

The subject of another data set is Puccinia recondita. The data set can be described thus: In vivo preventive test on Puccinia recondita (brown rust on wheat). To be noted: 264 h, 500 ppm of active ingredient, preventive spray on young wheat plants, evaluated 11 days after inoculation, read-out: efficacy. The method, then:
as §1, with “A:” for “D:”, “Puccinia recondita (Brown Rust on Wheat)” for “Uromyces appendiculatus (Bean Rust)”, “wheat” for “bean”, “Puccinia recondita” for “Uromyces appendiculatus”

From patent publication US20200029564A1, “NOVEL 5-SUBSTITUTED IMIDAZOLYLMETHYLOXIRANE DERIVATIVES” (Bayer CropScience Aktiengesellschaft, priority 2016, published 2020) come the findings set out here.

A word on the chromatographic logP: it is a lipophilicity value derived from retention on a column. The low end stands for lower lipophilicity, the high end for higher lipophilicity.

For the compound `Fc1ccc(C2(Cn3cncc3F)OC2c2ccccc2Cl)cc1` (centres unmarked) [I-02], the pest or weed control at 500 ppm (in the data set with Uromyces appendiculatus; in data set [2]; in the data set with Septoria tritici; with Sphaerotheca fuliginea; in the data set with Puccinia recondita) was 90 to 100% each time. The compound further showed a chromatographic logP in data set [1] of 2.62.
As for `Fc1ccc(C2(Cn3cncc3F)OC2c2ccccc2Br)cc1` (centres unmarked) [I-14], the pest or weed control at 500 ppm (in the data set with Uromyces appendiculatus; in data set [2]; in the data set on Septoria tritici; in the data set on Sphaerotheca fuliginea) was 90 to 100% throughout. For the same compound, the chromatographic logP in data set [1] amounted to 2.66.
As to `N#Cc1cncn1C[C@]1(c2ccc(F)cc2)O[C@H]1c1ccccc1Cl` (relative stereo) [I-03, trans 3-[[3-(2-chlorophenyl)-2-(4-fluorophenyl)oxiran-2-yl]methyl]imidazole-4-carbonitrile], the pest or weed control at 500 ppm (with Uromyces appendiculatus; in data set [2]; with Septoria tritici; in the data set on Sphaerotheca fuliginea) was 90 to 100% throughout. Also, the chromatographic logP in data set [1] is 3.33.
Regarding `N#Cc1cncn1CC1(c2ccc(Cl)cc2)OC1c1ccccc1Br` (centres unmarked) [I-11], the pest or weed control at 500 ppm in the data set on Uromyces appendiculatus was 90 to 100%; in data set [2], 80 to 89%; with Septoria tritici it was 90 to 100%; in the data set with Puccinia recondita, 90 to 100%. This compound also displayed a chromatographic logP in data set [1] of 3.83.
For the compound `N#Cc1cncn1CC1(c2ccc(F)cc2)OC1c1ccccc1Br` (centres unmarked) [I-13], the pest or weed control at 500 ppm (in the data set with Uromyces appendiculatus; in data set [2]; in the data set on Septoria tritici; with Puccinia recondita) was 90 to 100% throughout. Besides, the chromatographic logP in data set [1] turned out to be 3.44.
Consider `N#Cc1cncn1CC1(c2ccc(C(F)(F)F)cc2)OC1c1ccccc1Cl` (centres unmarked) [I-05], for which the pest or weed control at 500 ppm (in the data set with Uromyces appendiculatus; in data set [2]; in the data set with Septoria tritici; in the data set with Sphaerotheca fuliginea; in the data set on Puccinia recondita) was 90 to 100% in each case. Also, the chromatographic logP in data set [1] was 3.96.
As to `N#Cc1cncn1CC1(c2ccc(OC(F)(F)F)cc2)OC1c1ccccc1Cl` (centres unmarked) [I-07], the pest or weed control at 500 ppm (in the data set with Uromyces appendiculatus; in data set [2]; with Septoria tritici; with Sphaerotheca fuliginea; in the data set on Puccinia recondita) was 90 to 100% throughout. The chromatographic logP in data set [1] was found to be 4.11.
For `N#Cc1cncn1CC1(c2ccc(Cl)cc2)OC1c1ccccc1Cl` (centres unmarked) [I-06], the pest or weed control at 500 ppm (in the data set with Uromyces appendiculatus; in data set [2]; in the data set with Septoria tritici; with Sphaerotheca fuliginea; with Puccinia recondita) was 90 to 100% each time. Further, the chromatographic logP in data set [1] came to 3.68.
For `N#Cc1cncn1CC1(c2ccc(Cl)cc2)OC1c1ccccc1F` (centres unmarked) [I-10], the pest or weed control at 500 ppm (with Uromyces appendiculatus; in data set [2]; with Septoria tritici; in the data set on Sphaerotheca fuliginea; in the data set on Puccinia recondita) was 90 to 100% each time. The same compound yielded a chromatographic logP in data set [1] of 3.41.
Turning to `N#Cc1cncn1CC1(c2ccc(F)cc2)OC1c1ccccc1F` (centres unmarked) [I-12], the pest or weed control at 500 ppm (in the data set with Uromyces appendiculatus; in data set [2]; in the data set on Septoria tritici; with Sphaerotheca fuliginea; with Puccinia recondita) was 90 to 100% in each case. This compound also gave a chromatographic logP in data set [1] of 3.06.
Consider `Fc1ccc(C2(Cn3cncc3Cl)OC2c2ccccc2Cl)cc1` (centres unmarked) [I-01], for which the pest or weed control at 500 ppm (with Uromyces appendiculatus; in data set [2]; with Septoria tritici; with Sphaerotheca fuliginea; with Puccinia recondita) was 90 to 100% in each case. In data set [1], this compound showed a chromatographic logP of 3.19.
For `N#Cc1cncn1CC1(c2ccc(Cl)cc2F)OC1c1ccccc1Cl` (centres unmarked) [I-25], the pest or weed control at 500 ppm (in the data set with Uromyces appendiculatus; in data set [2]; in the data set with Septoria tritici; with Sphaerotheca fuliginea; in the data set on Puccinia recondita) was 90 to 100% throughout. In addition, in data set [1], the chromatographic logP came out at 3.8.
In the case of `N#Cc1cncn1CC1(c2ccc(F)cc2Cl)OC1c1ccccc1Cl` (centres unmarked) [I-29], the pest or weed control at 500 ppm (in the data set on Uromyces appendiculatus; in data set [2]; in the data set on Septoria tritici; in the data set on Sphaerotheca fuliginea; in the data set on Puccinia recondita) was 90 to 100% each time. The compound also showed a chromatographic logP in data set [1] of 3.71.
